Experimental data as given in US9975878B2, “Substituted triazine BMI-1 inhibitors” (PTC Therapeutics, Inc., priority 2013, dated 2018).

test system: Bmi-1 protein; assay: Sandwich ELISA Assay: Bmi-1 protein level in HT-1080 cells treated with test compounds; format: cell-based
How it was run: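 HT-1080 cells exposed to compounds (final DMSO 0.5%) for 40-48 h at 37° C, 5% CO2, then lysed. Bmi-1 quantified by sandwich ELISA (mouse anti-Bmi-1 capture, rabbit anti-Bmi-1 detection, HRP anti-rabbit, TMB), read at OD450 with OD570 reference, against recombinant GST-Bmi-1 standard curve (0-8000 pg/mL).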

Row | Compound | EC50 [µM]
1 | Nc1nc(Nc2ccc(OC(F)F)cc2)nc(-n2c(C3CC3)nc3c(F)cccc32)n1 [Cpd 86, 6-(2-cyclopropyl-4-fluoro-1H-benzimidazol-1-yl)-N-[4-(difluoromethoxy)phenyl]-1,3,5-triazine-2,4-diamine] | 0.01 to 0.1
2 | Nc1nc(Nc2ccc(OC(F)F)c(F)c2)nc(-n2c(C3CC3)nc3c(F)cccc32)n1 [Cpd 87, 6-(2-cyclopropyl-4-fluoro-1H-benzimidazol-1-yl)-N-[4-(difluoromethoxy)-3-fluorophenyl]-1,3,5-triazine-2,4-diamine] | 0.01 to 0.1
3 | Nc1nc(Nc2ccc(C(F)(F)F)cc2)nc(-n2c(C3CC3)nc3c(F)cc(F)cc32)n1 [Cpd 88, 6-(2-cyclopropyl-4,6-difluoro-1H-benzimidazol-1-yl)-N-[4-(trifluoromethyl)phenyl]-1,3,5-triazine-2,4-diamine] | 0.01 to 0.1
4 | Cc1nc2ccccc2n1-c1nc(N)nc(Nc2cccc(OC(F)F)c2)n1 [Cpd 93, N-[3-(difluoromethoxy)phenyl]-6-(2-methyl-1H-benzimidazol-1-yl)-1,3,5-triazine-2,4-diamine] | 0.1 to 3
5 | Cc1nc2ccccc2n1-c1nncc(Nc2ccc(C(F)(F)F)cc2)n1 [Cpd 94, 3-(2-methyl-1H-benzimidazol-1-yl)-N-[4-(trifluoromethyl)phenyl]-1,2,4-triazin-5-amine] | 0.1 to 3
6 | Cc1nc2c(F)cccc2n1-c1nc(N)nc(Nc2ccc(C(F)(F)F)cc2)n1 [Cpd 95, 6-(4-fluoro-2-methyl-1H-benzimidazol-1-yl)-N-[4-(trifluoromethyl)phenyl]-1,3,5-triazine-2,4-diamine] | 0.1 to 3
7 | Cc1nc2c(F)cccc2n1-c1nc(N)nc(Nc2ccc(OC(F)F)cc2)n1 [Cpd 96, N-[4-(difluoromethoxy)phenyl]-6-(4-fluoro-2-methyl-1H-benzimidazol-1-yl)-1,3,5-triazine-2,4-diamine] | 0.01 to 0.1
8 | Cc1nc2c(F)cccc2n1-c1nc(N)nc(Nc2ccc(OC(F)F)c(F)c2)n1 [Cpd 97, N-[4-(difluoromethoxy)-3-fluorophenyl]-6-(4-fluoro-2-methyl-1H-benzimidazol-1-yl)-1,3,5-triazine-2,4-diamine] | 0.1 to 3
9 | CCc1nc2ccccc2n1-c1nncc(Nc2ccc(C(F)(F)F)cc2)n1 [Cpd 98, 3-(2-ethyl-1H-benzimidazol-1-yl)-N-[4-(trifluoromethyl)phenyl]-1,2,4-triazin-5-amine] | 0.01 to 0.1
10 | Cc1nc2ccccc2n1-c1nncc(Nc2ccc(OC(F)F)cc2)n1 [Cpd 99, N-[4-(difluoromethoxy)phenyl]-3-(2-methyl-1H-benzimidazol-1-yl)-1,2,4-triazin-5-amine] | 0.01 to 0.1
11 | CCc1nc2ccccc2n1-c1nncc(Nc2ccc(OC(F)F)cc2)n1 [Cpd 100, N-[4-(difluoromethoxy)phenyl]-3-(2-ethyl-1H-benzimidazol-1-yl)-1,2,4-triazin-5-amine] | 0.01 to 0.1
12 | FC(F)(F)c1ccc(Nc2cnnc(-n3c(C4CC4)nc4ccccc43)n2)cc1 [Cpd 101, 3-(2-cyclopropyl-1H-benzimidazol-1-yl)-N-[4-(trifluoromethyl)phenyl]-1,2,4-triazin-5-amine] | 0.01 to 0.1
13 | Nc1nc(Nc2ccc(OC(F)F)nc2)nc(-n2c(C(F)F)nc3ccccc32)n1 [Cpd 105, N-[6-(difluoromethoxy)pyridin-3-yl]-6-[2-(difluoromethyl)-1H-benzimidazol-1-yl]-1,3,5-triazine-2,4-diamine] | 0.01 to 0.1
14 | Nc1nc(Nc2ccc(C(F)(F)F)cc2)nc(-n2c(CF)nc3ccccc32)n1 [Cpd 107, 6-[2-(fluoromethyl)-1H-benzimidazol-1-yl]-N-[4-(trifluoromethyl)phenyl]-1,3,5-triazine-2,4-diamine] | 0.1 to 3
15 | Nc1nc(Nc2ccc(OC(F)F)nc2)nc(-n2c(CF)nc3ccccc32)n1 [Cpd 110, N-[6-(difluoromethoxy)pyridin-3-yl]-6-[2-(fluoromethyl)-1H-benzimidazol-1-yl]-1,3,5-triazine-2,4-diamine] | 0.1 to 3
16 | Cc1nc2ccccc2n1-c1cnnc(Nc2ccc(C(F)(F)F)cc2)n1 [Cpd 112, 5-(2-methyl-1H-benzimidazol-1-yl)-N-[4-(trifluoromethyl)phenyl]-1,2,4-triazin-3-amine] | 0.1 to 3
17 | FC(F)Oc1ccc(Nc2cnnc(-n3c(C4CC4)nc4ccccc43)n2)cc1 [Cpd 113, 3-(2-cyclopropyl-1H-benzimidazol-1-yl)-N-[4-(difluoromethoxy)phenyl]-1,2,4-triazin-5-amine] | 0.01 to 0.1
18 | Nc1nc(Nc2ccc(C(F)(F)F)cc2)nc(-n2c(C(F)F)nc3cc(F)c(F)cc32)n1 [Cpd 114, 6-[2-(difluoromethyl)-5,6-difluoro-1H-benzimidazol-1-yl]-N-[4-(trifluoromethyl)phenyl]-1,3,5-triazine-2,4-diamine] | 0.1 to 3
19 | Nc1nc(Nc2ccc(OC(F)F)cc2)nc(-n2c(C(F)F)nc3cc(F)c(F)cc32)n1 [Cpd 115, N-[4-(difluoromethoxy)phenyl]-6-[2-(difluoromethyl)-5,6-difluoro-1H-benzimidazol-1-yl]-1,3,5-triazine-2,4-diamine] | 0.01 to 0.1

Row | Compound | EC50 [µM]
20 | CCc1nc2cc(F)c(F)cc2n1-c1nc(N)nc(Nc2ccc(C(F)(F)F)cc2)n1 [Cpd 116, 6-(2-ethyl-5,6-difluoro-1H-benzimidazol-1-yl)-N-[4-(trifluoromethyl)phenyl]-1,3,5-triazine-2,4-diamine] | 0.1 to 3
21 | Nc1nc(Nc2ccc(OC(F)F)c(F)c2)nc(-n2c(C(F)F)nc3cc(F)c(F)cc32)n1 [Cpd 117, N-[4-(difluoromethoxy)-3-fluorophenyl]-6-[2-(difluoromethyl)-5,6-difluoro-1H-benzimidazol-1-yl]-1,3,5-triazine-2,4-diamine] | 0.1 to 3
22 | Nc1nc(Nc2ccc(C(F)(F)F)cc2)nc(-n2c(CO)nc3ccccc32)n1 [Cpd 118, [1-(4-amino-6-{[4-(trifluoromethyl)phenyl]amino}-1,3,5-triazin-2-yl)-1H-benzimidazol-2-yl]methanol] | 0.1 to 3
23 | N#CCc1nc2ccccc2n1-c1nc(N)nc(Nc2ccc(C(F)(F)F)cc2)n1 [Cpd 119, [1-(4-amino-6-{[4-(trifluoromethyl)phenyl]amino}-1,3,5-triazin-2-yl)-1H-benzimidazol-2-yl]acetonitrile] | 0.1 to 3
24 | Nc1nc(Nc2ccc(OC(F)F)cc2)nc(-n2c(CO)nc3ccccc32)n1 [Cpd 120, [1-(4-amino-6-{[4-(difluoromethoxy)phenyl]amino}-1,3,5-triazin-2-yl)-1H-benzimidazol-2-yl]methanol] | 0.1 to 3
25 | CSc1nc2ccccc2n1-c1nc(N)nc(Nc2ccc(OC(F)F)cc2)n1 [Cpd 121, N-[4-(difluoromethoxy)phenyl]-6-[2-(methylsulfanyl)-1H-benzimidazol-1-yl]-1,3,5-triazine-2,4-diamine] | 0.1 to 3
26 | N#CCc1nc2ccccc2n1-c1nc(N)nc(Nc2ccc(OC(F)F)c(F)c2)n1 [Cpd 122, [1-(4-amino-6-{[4-(difluoromethoxy)-3-fluorophenyl]amino}-1,3,5-triazin-2-yl)-1H-benzimidazol-2-yl]acetonitrile] | 0.1 to 3
27 | Cc1nn2ccccc2c1-c1nc(N)nc(Nc2ccc(OC(F)F)cc2)n1 [Cpd 123, N-[4-(difluoromethoxy)phenyl]-6-(2-methylpyrazolo[1,5-a]pyridin-3-yl)-1,3,5-triazine-2,4-diamine] | 0.1 to 3
28 | CCc1nc2ccccc2n1-c1cnnc(Nc2ccc(C(F)(F)F)cc2)n1 [Cpd 124, 5-(2-ethyl-1H-benzimidazol-1-yl)-N-[4-(trifluoromethyl)phenyl]-1,2,4-triazin-3-amine] | 0.1 to 3
29 | CCc1nc2ccc(F)cc2n1-c1cnnc(Nc2ccc(C(F)(F)F)cc2)n1 [Cpd 125, 5-(2-ethyl-6-fluoro-1H-benzimidazol-1-yl)-N-[4-(trifluoromethyl)phenyl]-1,2,4-triazin-3-amine] | 0.1 to 3
30 | Cc1nc2ccc(F)cc2n1-c1cnnc(Nc2ccc(C(F)(F)F)cc2)n1 [Cpd 126, 5-(6-fluoro-2-methyl-1H-benzimidazol-1-yl)-N-[4-(trifluoromethyl)phenyl]-1,2,4-triazin-3-amine] | 0.1 to 3
31 | CCCc1nc2ccccc2n1-c1nc(N)nc(Nc2ccc(C(F)(F)F)cc2)n1 [Cpd 127, 6-(2-propyl-1H-benzimidazol-1-yl)-N-[4-(trifluoromethyl)phenyl]-1,3,5-triazine-2,4-diamine] | 0.1 to 3
32 | CCc1nn2ccccc2c1-c1nc(N)nc(Nc2ccc(C(F)(F)F)cc2)n1 [Cpd 128, 6-(2-ethylpyrazolo[1,5-a]pyridin-3-yl)-N-[4-(trifluoromethyl)phenyl]-1,3,5-triazine-2,4-diamine] | 0.1 to 3
33 | CCc1nn2ccccc2c1-c1nc(N)nc(Nc2ccc(OC(F)F)cc2)n1 [Cpd 129, N-[4-(difluoromethoxy)phenyl]-6-(2-ethylpyrazolo[1,5-a]pyridin-3-yl)-1,3,5-triazine-2,4-diamine] | 0.1 to 3
34 | Cc1nc2ccc(F)cc2n1-c1nncc(Nc2ccc(C(F)(F)F)cc2)n1 [Cpd 130, 3-(6-fluoro-2-methyl-1H-benzimidazol-1-yl)-N-[4-(trifluoromethyl)phenyl]-1,2,4-triazin-5-amine] | 0.1 to 3
35 | CCc1nc2ccc(F)cc2n1-c1nncc(Nc2ccc(C(F)(F)F)cc2)n1 [Cpd 131, 3-(2-ethyl-6-fluoro-1H-benzimidazol-1-yl)-N-[4-(trifluoromethyl)phenyl]-1,2,4-triazin-5-amine] | 0.1 to 3
36 | Fc1ccc2nc(C3CC3)n(-c3nncc(Nc4ccc(C(F)(F)F)cc4)n3)c2c1 [Cpd 132, 3-(2-cyclopropyl-6-fluoro-1H-benzimidazol-1-yl)-N-[4-(trifluoromethyl)phenyl]-1,2,4-triazin-5-amine] | 0.01 to 0.1
37 | FC(F)(F)c1ccc(Nc2nncc(-n3c(C4CC4)nc4ccccc43)n2)cc1 [Cpd 133, 5-(2-cyclopropyl-1H-benzimidazol-1-yl)-N-[4-(trifluoromethyl)phenyl]-1,2,4-triazin-3-amine] | 0.01 to 0.1
38 | Fc1ccc2nc(C3CC3)n(-c3cnnc(Nc4ccc(C(F)(F)F)cc4)n3)c2c1 [Cpd 134, 5-(2-cyclopropyl-6-fluoro-1H-benzimidazol-1-yl)-N-[4-(trifluoromethyl)phenyl]-1,2,4-triazin-3-amine] | 0.1 to 3
